One data set can be described thus: Acute toxicity (mouse). Particulars: in vivo, ip. The source says:
(§1) Data of the anti-ulcerative activity (Shay rat) and the acute toxicity (mouse) obtained with respect to several typical instances of compounds included in the scope of this invention are shown in Table 1.

Another data set relates to Ulcer (Shay rat). Description: Anti-ulcerative activity (Shay rat). Particulars: ip, read-out: % Inhibition of Ulcer Index; for inhibition in vivo at 10 mg/kg: 10 mg/Kg i.p.; for inhibition in vivo at 20 mg/kg: 20 mg/Kg i.p. It is filed as in vivo.
Text: as §1

Molecules are shown by their SMILES.

Take `Nc1nc(N)nc(-c2cc(Cl)ccc2Br)n1` [Example 3]: the LD50 (usually the dose expected to kill half of the subjects tested) in “Acute toxicity (mouse)” is approximately 1000 mg/kg. Moreover, in the data set on Ulcer (Shay rat), the inhibition in vivo at 10 mg/kg is 33% and the inhibition in vivo at 20 mg/kg was 80%.

Take `Nc1nc(N)nc(-c2cc(Cl)ccc2F)n1` [Example 2]: the inhibition in vivo at 20 mg/kg in the data set on Ulcer (Shay rat) amounted to 89%.

`Nc1nc(N)nc(-c2ccc(Cl)cc2Cl)n1` [Example 7] gave an LD50 in the data set “Acute toxicity (mouse)” of approximately 300 mg/kg. For the same compound, in the data set on Ulcer (Shay rat), the inhibition in vivo at 10 mg/kg came out at 77% and the inhibition in vivo at 20 mg/kg is 100%.

As to `Nc1nc(N)nc(-c2cc(Br)ccc2Cl)n1` [Example 6], the 50% lethal dose (LD50) in “Acute toxicity (mouse)” was more than 1000 mg/kg. For the same compound, in the data set on Ulcer (Shay rat), the inhibition in vivo at 10 mg/kg turned out to be 35% and the inhibition in vivo at 20 mg/kg came to 86%.

As for `Nc1nc(N)nc(-c2cc(Cl)ccc2Cl)n1` [Example 1], the 50% lethal dose (LD50) in the data set “Acute toxicity (mouse)” was approximately 1600 mg/kg. Moreover, in the data set on Ulcer (Shay rat), the inhibition in vivo at 10 mg/kg amounted to 49% and the inhibition in vivo at 20 mg/kg is 100%.

For `Nc1nc(N)nc(-c2cccc(Cl)c2Cl)n1` [Example 10], in the data set on Ulcer (Shay rat), the inhibition in vivo at 20 mg/kg is 76%.

With `Nc1nc(N)nc(-c2cc(F)ccc2Br)n1` [Example 4], the LD50 in “Acute toxicity (mouse)” was approximately 500 mg/kg. The inhibition in vivo at 20 mg/kg in the data set on Ulcer (Shay rat) turned out to be 78%.

For `Nc1nc(N)nc(-c2c(Cl)cccc2Cl)n1` [Example 11], the inhibition in vivo at 20 mg/kg with Ulcer (Shay rat) came to 54%.

In the data set “Acute toxicity (mouse)”, `Nc1nc(N)nc(-c2cc(Br)ccc2Br)n1` [Example 5] displayed a 50% lethal dose (LD50) of approximately 850 mg/kg. Besides, the inhibition in vivo at 20 mg/kg in the data set with Ulcer (Shay rat) was 100%.

For `Nc1nc(N)nc(-c2cc(Cl)cc(Cl)c2)n1` [Example 12], the inhibition in vivo at 20 mg/kg in the data set on Ulcer (Shay rat) is 80%.

For `Nc1nc(N)nc(-c2ccc(Cl)cc2Br)n1` [Example 8], in the data set with Ulcer (Shay rat), the inhibition in vivo at 10 mg/kg came out at 76% and the inhibition in vivo at 20 mg/kg worked out at 96%.

The values are drawn from patent publication US3966728A, “Benzoguanamine derivatives” (Nippon Shinyaku Co., Ltd., priority 1974, dated 1976).
